Literature values, collected in US20210196661A1, “METHOD FOR AMELIORATION OF INSULIN RESISTANCE” (priority 2019, published 2021).

Columns and labels:
[1] = tested on: integrated stress response (ISR); details: mice
[2] = in vivo

half life [2] [h] | SMILES | age-related memory impairment [1] | levels of ATF4 [1] | levels of phosphorylated eIF2a [1]
– | O=C(COc1ccc(Cl)cc1)NC1CCC(NC(=O)COc2ccc(Cl)cc2)CC1 (stereo not shown) [ISM] | rapidly reverses | decreases | decreases
120 to 170 | N[C@@H](Cc1cc(I)c(Oc2cc(I)c(O)c(I)c2)c(I)c1)C(=O)O [T4, L-thyroxine] | – | – | –
